From the supplement of paper PMC7840683
± gives the standard deviation of the averaged measurements.

Test system: HepaRG
Experiment: LDH release cytotoxicity, % of total lysis control; higher = more cytotoxic
Conditions: 48 h
How it was run: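 HepaRG cells from a single lot were plated on collagen I-coated 96-well plates and treated in duplicate for 48 h with eight-point half-log series of test chemicals, starting at 100 µM, in serum-free induction medium containing 0.5% DMSO. Total lysis wells were given 0.1% Triton X. LDH released into 50 µL of spent medium was measured as resorufin fluorescence with CytoTox-ONE on a Tecan Safire. Percent cytotoxicity was normalized to on-plate vehicle and total lysis controls and then averaged across duplicates.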

| Compound | LDH release cytotoxicity (0.03162 µM) [%] | LDH release cytotoxicity (0.1 µM) [%] | LDH release cytotoxicity (0.3162278 µM) [%] | LDH release cytotoxicity (1 µM) [%] | LDH release cytotoxicity (3.16228 µM) [%] | LDH release cytotoxicity (10 µM) [%] | LDH release cytotoxicity (31.6228 µM) [%] | LDH release cytotoxicity (100 µM) [%] | other results |
| --- | --- | --- | --- | --- | --- | --- | --- | --- | --- |
| CCC(C)OC(=O)N1CCCCC1CCO (centres undefined) [Icaridin] | 6.64 ± 2.3 | 4.72 ± 0.94 | 4.33 ± 2.2 | 5.97 ± 4 | 5.34 ± 1.5 | 2.82 ± 1.4 | 8.294 ± 0.063 | 9.41 ± 0.56 | – |
| [As]#[In] [Indium arsenide] | 0.449 ± 0.65 | -0.971 ± 1.1 | 0.268 ± 0.68 | -0.269 ± 0.016 | 0.376 ± 0.79 | 0.749 ± 0.43 | 0.141 ± 0.26 | 1.11 ± 0.32 | – |
| CCCCC(C#N)(Cn1cncn1)c1ccc(Cl)cc1 (centres undefined) [Myclobutanil] | – | 0.0936 ± 0.35 | – | -0.556 ± 0.71 | -7.8 ± 0.19 | 8.33 ± 0.4 | 0.7089 ± 0.0019 | 7.68 ± 2.1 | LDH release cytotoxicity (0.031623 µM): 0.809 ± 1.1%; LDH release cytotoxicity (0.316228 µM): -0.274 ± 0.61% |
| CCC(C)(C)c1ccc(O)c(C(C)(C)CC)c1 [2,4-Di-tert-pentylphenol] | 0.622 ± 0.85 | -1.25 ± 0.82 | -0.993 ± 0.16 | -1.77 ± 0.046 | -1.69 ± 0.36 | -1.3 ± 0.39 | -1.19 ± 0.04 | 0.754 ± 0.54 | – |
| Oc1ccc(Cl)cc1Cc1ccccc1 [Clorophene] | – | – | – | – | – | – | – | – | LDH release cytotoxicity (0.031939 µM): -1.4 ± 0.39%; LDH release cytotoxicity (0.101 µM): -1.14 ± 0.47%; LDH release cytotoxicity (0.31939 µM): -1.6 ± 0.87%; LDH release cytotoxicity (1.01 µM): -1.11 ± 1.2%; LDH release cytotoxicity (3.1939004 µM): -0.749 ± 0.49%; LDH release cytotoxicity (10.1 µM): -0.231 ± 0.26%; LDH release cytotoxicity (31.939 µM): -0.479 ± 0.25%; LDH release cytotoxicity (101 µM): 54 ± 2% |
| CC(C)=CCCC(C)CCO (centres undefined) [Citronellol] | -1.93 ± 0.69 | -2.94 ± 0.29 | -2.48 ± 0.3 | -2.8 ± 0.43 | -2.02 ± 0.57 | -2.14 ± 0.43 | -1.61 ± 0.76 | 0.398 ± 0.43 | – |
| Cc1ncc(C(CCCCCCc2ccc3c(n2)NCCC3)CC(=O)O)cn1 (centres undefined) | -1.55 ± 0.6 | -1.82 ± 1.1 | -1.74 ± 0.75 | -2.04 ± 0.057 | -1.49 ± 1.3 | -1.25 ± 0.094 | -1.33 ± 0.38 | 0.986 ± 0.45 | – |
| ClC1C(Cl)C(Cl)C(Cl)C(Cl)C1Cl (centres undefined) [Lindane] | -0.796 ± 0.18 | -0.605 ± 0.45 | -0.762 ± 1 | -0.901 ± 0.75 | -0.128 ± 0.47 | -0.657 ± 0.1 | 0.201 ± 0.43 | 5.07 ± 0.72 | – |
| CC1(C)CC(N=C=O)CC(C)(CN=C=O)C1 (centres undefined) [Isophorone diisocyanate] | -2.14 ± 0.59 | -2.6 ± 0.31 | -2.25 ± 1.1 | -2.1 ± 0.37 | -1.35 ± 0.43 | -1.724 ± 0.015 | -2.21 ± 0.73 | 0.405 ± 0.69 | – |
| CCCCN(CCCC)N=O [N-Nitrosodibutylamine] | -1.09 ± 0.045 | -1.36 ± 0.25 | -1.56 ± 0.69 | -2.27 ± 0.91 | -1.56 ± 0.58 | -1.2 ± 0.67 | -1.12 ± 0.17 | 0.0939 ± 0.25 | – |
| C#CC(C)(C)NC(=O)c1cc(Cl)cc(Cl)c1 [Propyzamide] | -1.48 ± 1.2 | -0.106 ± 0.45 | -1.18 ± 0.17 | -0.534 ± 0.42 | -1.13 ± 0.49 | -0.249 ± 0.6 | -0.378 ± 0.49 | 1.49 ± 0.29 | – |
| CCSC(=O)N(CC(C)C)CC(C)C [Butylate] | -1.39 ± 0.082 | -1.51 ± 1.6 | -0.761 ± 0.31 | -1.26 ± 0.046 | -0.761 ± 0.45 | -0.00901 ± 0.45 | -0.0439 ± 1.2 | -0.00901 ± 0.1 | – |
| Cc1oc(-c2ccccc2)nc1CCOc1cccc2c1ccn2CCC(=O)O | -0.496 ± 0.49 | -1.56 ± 0.14 | -1.37 ± 1.4 | -1.71 ± 0.068 | -1.03 ± 0.61 | -0.899 ± 0.13 | -0.577 ± 0.44 | 45.3 ± 5.2 | – |
| CC(C)N(Cc1ccccc1)C(=O)C(C)(C)C [Butam] | -0.681 ± 0.21 | -1.54 ± 0.98 | -1.1 ± 0.59 | -0.413 ± 0.43 | -0.189 ± 0.29 | 0.285 ± 0.9 | 0.032 ± 0.83 | 0.934 ± 0.57 | – |
| CCN(CC)C(=S)SSC(=S)N(CC)CC [Tetraethylthiuram disulfide] | – | – | – | – | – | – | – | – | LDH release cytotoxicity (0.0322552 µM): -1.43 ± 0.25%; LDH release cytotoxicity (0.102 µM): -2.15 ± 0.58%; LDH release cytotoxicity (0.322552 µM): -2.5 ± 0.25%; LDH release cytotoxicity (1.02 µM): -2.4 ± 0.028%; LDH release cytotoxicity (3.2255232 µM): -1.91 ± 0.23%; LDH release cytotoxicity (10.2 µM): -1.62 ± 0.69%; LDH release cytotoxicity (32.2552 µM): -0.659 ± 0.28%; LDH release cytotoxicity (102 µM): 3.01 ± 0.7% |
| CCCCCCCCCCCC(=O)OC [Methyl dodecanoate] | 0.879 ± 1.4 | -1.07 ± 0.59 | -1.35 ± 0.79 | -1.18 ± 0.72 | -0.971 ± 0.58 | -0.971 ± 1.3 | -1.41 ± 0.49 | 0.025 ± 0.27 | – |
| Cc1cccc(C)c1O [2,6-Dimethylphenol] | -1.24 ± 1.2 | -0.897 ± 0.56 | -1.931 ± 0.0097 | -1.91 ± 0.97 | -1.66 ± 0.091 | -1.73 ± 0.19 | -0.524 ± 1.1 | 0.122 ± 0.94 | – |

| Compound | LDH release cytotoxicity (0.03162 µM) [%] | LDH release cytotoxicity (0.1 µM) [%] | LDH release cytotoxicity (0.3162278 µM) [%] | LDH release cytotoxicity (1 µM) [%] | LDH release cytotoxicity (3.16228 µM) [%] | LDH release cytotoxicity (10 µM) [%] | LDH release cytotoxicity (31.6228 µM) [%] | LDH release cytotoxicity (100 µM) [%] | other results |
| --- | --- | --- | --- | --- | --- | --- | --- | --- | --- |
| CN(C)c1ccc(C(=O)c2ccc(N(C)C)cc2)cc1 [Michler's ketone] | -2.16 ± 0.051 | -1.79 ± 0.22 | -1.41 ± 0.071 | -2.73 ± 1 | 2.66 ± 0.82 | 9.37 ± 0.13 | 7.06 ± 0.09 | 12.9 ± 2 | – |
| CSC1=NC(C)(c2ccccc2)C(=O)N1Nc1ccccc1 (centres undefined) [Fenamidone] | -1.05 ± 0.0084 | -1.31 ± 0.79 | -1.11 ± 0.55 | -1.54 ± 1.1 | -1.63 ± 0.022 | -2.26 ± 0.039 | 6.59 ± 0.97 | 15.2 ± 0.075 | – |
| CC(C)c1nnc2ccc(-c3ocnc3-c3cc(F)ccc3F)cn12 | -1.28 ± 0.22 | -1.01 ± 0.88 | -1.08 ± 0.44 | -1.31 ± 0.37 | -2.01 ± 0.34 | -1.36 ± 0.45 | -2.04 ± 0.03 | 5.98 ± 0.59 | – |
| COC=C(C(=O)OC)c1ccccc1COc1cccc(C(F)(F)F)n1 [Picoxystrobin] | -4.13 ± 1 | -3.11 ± 1.4 | -4.04 ± 0.58 | -4.28 ± 1.9 | -5.14 ± 0.47 | 20 ± 2.6 | 37 ± 6.9 | 60 ± 9.4 | – |
| CCCCCCCCn1sccc1=O [Octhilinone] | – | – | – | – | – | – | – | – | LDH release cytotoxicity (0.0328877 µM): -1.41 ± 0.74%; LDH release cytotoxicity (0.104 µM): -1.11 ± 0.18%; LDH release cytotoxicity (0.328877 µM): -1.8 ± 0.29%; LDH release cytotoxicity (1.04 µM): -2.06 ± 0.24%; LDH release cytotoxicity (3.28877 µM): -1.28 ± 0.083%; LDH release cytotoxicity (10.4 µM): -1.43 ± 0.041%; LDH release cytotoxicity (32.8877 µM): -0.0918 ± 0.75%; LDH release cytotoxicity (104 µM): 41.4 ± 8.2% |
| O=[N+]([O-])c1ccc(Cl)cc1 [1-Chloro-4-nitrobenzene] | -0.012 ± 0.35 | -0.728 ± 0.66 | 0.037 ± 0.14 | -0.523 ± 0.12 | -0.0534 ± 0.38 | 0.685 ± 0.47 | 5.08 ± 0.88 | 18 ± 1.8 | – |
| CCc1cnc(C2=NC(C)(C(C)C)C(=O)N2)c(C(=O)O)c1 (centres undefined) [Imazethapyr] | -0.727 ± 0.19 | -1.781 ± 0.0048 | -1.13 ± 0.36 | -1.33 ± 0.57 | -1.54 ± 0.26 | -1.13 ± 0.26 | -0.237 ± 0.13 | 0.45 ± 0.53 | – |
| N#CN=C1SCCN1Cc1ccc(Cl)nc1 [Thiacloprid] | -2.96 ± 0.36 | -3.73 ± 0.31 | -3.467 ± 0.025 | -3.3 ± 0.68 | -3.46 ± 0.55 | -2.54 ± 0.15 | -2.87 ± 0.072 | -1.64 ± 1.2 | – |
| O=C(O)C1(c2ccc3c(c2)OCC(Cc2ccc(-c4ccccc4)cc2)C3O)CCCC1 (centres undefined) | -0.731 ± 0.23 | -0.599 ± 0.46 | -0.19 ± 0.2 | -0.676 ± 0.19 | -0.648 ± 0.37 | 0.306 ± 0.15 | 2.92 ± 0.35 | 72.9 ± 7 | – |
| CC(C)CCCCCCOC(=O)CCCCC(=O)OCCCCCCC(C)C [Hexanedioic acid, diisononyl ester] | -1.22 ± 0.85 | -0.123 ± 0.24 | 0.647 ± 0.098 | -0.997 ± 1.1 | 0.19 ± 0.33 | 0.0398 ± 0.088 | 0.663 ± 0.4 | 0.377 ± 0.98 | – |
| CCCCCCCCCCCCO [1-Dodecanol] | – | -0.16 ± 8 | – | -2.62 ± 3.8 | -2.27 ± 3.2 | -0.892 ± 4.2 | -1.67 ± 1 | -0.399 ± 1.2 | LDH release cytotoxicity (0.031623 µM): -3.98 ± 0.71%; LDH release cytotoxicity (0.316228 µM): -2.69 ± 2.2% |
| Nc1cccc(N)c1 [1,3-Benzenediamine] | -1.18 ± 0.7 | -2.11 ± 0.27 | -1.93 ± 0.12 | -1.36 ± 0.52 | -1 ± 0.48 | -0.806 ± 0.47 | -1.17 ± 0.023 | 0.323 ± 1.3 | – |
| CC(=O)Oc1ccccc1C(=O)O [Aspirin] | -1.2 ± 0.093 | -0.322 ± 0.2 | 0.562 ± 0.26 | -0.207 ± 0.53 | -0.296 ± 0.42 | -0.207 ± 0.33 | 0.489 ± 0.23 | 2.14 ± 0.33 | – |
| CCC1CC(N(Cc2cc(C(F)(F)F)cc(C(F)(F)F)c2)C(C)=O)c2cc(C(F)(F)F)ccc2N1C(=O)OC(C)C (centres undefined) | -0.374 ± 0.25 | 0.141 ± 0.44 | -0.658 ± 0.2 | -0.248 ± 0.3 | -1.3 ± 0.09 | 0.748 ± 0.45 | 3.11 ± 0.63 | 7.54 ± 0.85 | – |
| O=C1CCC(N2C(=O)c3ccccc3C2=O)C(=O)N1 (centres undefined) [Thalidomide] | -0.888 ± 0.55 | -1.52 ± 0.44 | -0.291 ± 0.28 | -0.415 ± 0.18 | -0.0333 ± 0.45 | 0.674 ± 0.93 | 1.56 ± 1.5 | 1.53 ± 1.5 | – |
| Cc1cccc(N)c1 [3-Methylaniline] | -1.1 ± 0.99 | -0.218 ± 0.41 | -1 ± 0.32 | -0.834 ± 0.35 | -0.813 ± 0.085 | 0.339 ± 0.18 | 0.0207 ± 0.7 | 1.94 ± 0.54 | – |
